# Data taken from patent US20120004289A1, “ANNEXIN A11 AND ASSOCIATED GENES AS BIOMARKERS FOR CANCER” (The Johns Hopkins University, priority 2009, published 2012).
# Columns and labels:
# Assay type in all cases: cell-based, human
# [1] = system: 2008 cells; assay: Real-time PCR validation of gene expression response to cisplatin; details: both groups of cells
# Protocol: 2008 cells were cultured in T150 flasks and transfected with A1 or negative control for 2 days. Cells were then collected, counted, and placed into 100-mm dishes. After incubating overnight, transfected cells were at 50% confluence and treated with 10 μM cisplatin (Sigma-Aldrich, St. Louis, Mo.) for 0, 8, 16, and 24 hours and then harvested in two portions for both total RNA and total protein extractions at every single time point. The optimized dose and duration of cisplatin treatment were experimentally determined in a previous study. Total RNA was isolated using TRIZOL reagent (Invitrogen) followed by RNeasy mini kit with DNase on-column digestion (Qiagen, Valencia, Calif.). RNA was quantified with NanoDrop ND-1000 followed by quality assessment with the 2100 Bioanalyzer (Agilent Technologies, Santa Clara, Calif.) according to manufacturer's protocol. […]. One microgram of total RNA was used to generate cDNA using the iScript cDNA Synthesis Kit (Bio-Rad, Hercules, Calif.). […] An experiment consisted of triplicate amplification reactions for each gene product being analyzed. […] The cycle threshold number (CT) was determined for each PCR using iQ5 Real-time PCR Detection System (Bio-Rad). […] Results are expressed as relative abundance of a specific mRNA between control and experimental sample (fold change, mean±SD).
# [2] = system: 2008 cells; assay: Cell cytotoxicity assay of cisplatin (CCK-8) in siRNA- or control-transfected 2008 cells; details: 72 hours
# Protocol: (A and B) Cell proliferation assay. 2008 (A) or HEY (B) cells were treated with RNAi (A1) or -Ctr at the concentration of 40 nM for 3 days, respectively, and then plated at 3000 viable cells per well into 96-well plates. Every 24 hours, one plate was subjected to assay by CCK-8 kit. The data in each time point are averaged values from eight replicates (P<0.05). (C) Colony formation assay. 2008 cells were treated in the same way as above for 3 days and then plated at 3000 viable cells per well into six-well plates. Six days after plating, cells were fixed with methanol and stained with 0.1% crystal violet and colonies were counted. The experiment was performed in six replicates (P<0.01). (D) Cell cytotoxicity assay. 2008 cells were treated in same way as above for 3 days and then plated at 3000 viable cells per well into 96-well plates. After incubating overnight, cells were treated with various concentration of cisplatin diluted in 100 μl of conditioned medium (the final concentrations of cisplatin were 0, 1.56, 3.13, 6.25, 12.5, 25, 50, and 100 μg/ml). After continuous incubation for 72 hours, the plates were subjected to assay by CCK-8 kit. The experiment was performed in three replicates (P<0.01). Three independent experiments were performed for each assay. […] Cells were then collected, counted, and plated at 3000 viable cells per well into 96-well plates in a final volume of 100 μl. […]
# [3] = system: 2008 cells; assay: Time course of gene expression response to cisplatin, Agilent 44K whole genome oligo microarray; details: 10 μM cisplatin
# Protocol: 2008 cells were cultured in T150 flasks and transfected with A1 or negative control for 2 days. Cells were then collected, counted, and placed into 100-mm dishes. After incubating overnight, transfected cells were at 50% confluence and treated with 10 μM cisplatin (Sigma-Aldrich, St. Louis, Mo.) for 0, 8, 16, and 24 hours and then harvested in two portions for both total RNA and total protein extractions at every single time point. The optimized dose and duration of cisplatin treatment were experimentally determined in a previous study. Total RNA was isolated using TRIZOL reagent (Invitrogen) followed by RNeasy mini kit with DNase on-column digestion (Qiagen, Valencia, Calif.). RNA was quantified with NanoDrop ND-1000 followed by quality assessment with the 2100 Bioanalyzer (Agilent Technologies, Santa Clara, Calif.) according to manufacturer's protocol. Total RNA was labeled using Agilent Low RNA Input Fluorescent Linear Amplification Kit (Agilent) following the manufacturer's instruction with minor modifications. Briefly, 0.4 μg of RNA was reverse transcribed into cDNA by MMLV-RT using an oligo dT primer (System Biosciences, Mountain View, Calif.) that incorporated a T7 promoter sequence. The cDNA was then used as a template for in vitro transcription in the presence of T7 RNA polymerase and cyanine-3-labeled CTPs (Perkin Elmer Life Sciences, Boston, Mass.). RNA spike-in controls (Agilent) were added to RNA samples before amplification and labeling. The labeled cRNA was purified using the RNeasy mini kit (Qiagen). A total of 0.825 μg of each Cy3-labeled sample was used for hybridization on Agilent 4×44K whole human genome microarray at 65° C. for 17 hours in a hybridization oven with rotation. After hybridization, slides were washed and dried using stabilization and drying solution according to the Agilent microarray processing protocol. Slides were scanned using the Agilent Microarray Scanner controlled by Agilent Scan Control 7.0 software. Microarray data were extracted with Agilent Feature Extraction 9.5.3.1 software and imported into GeneSpring GX 10 (Agilent). […]
structure (smiles),measurement,setting,value
N.N.[Cl][Pt][Cl] [cisplatin],PCSK9 gene expression (real-time PCR),"[1]; 10 μM cisplatin, 8, 16 and 24 hours",decreased at 8 hours but increased at 16 and 24 hours
same,DHRS2 gene expression (real-time PCR),"[1]; 10 μM cisplatin, 16 and 24 hours",down-regulation
same,fold increase of IC50 in RNAi cells compared with control cells,[2],2.6 fold
same,number of genes upregulated or downregulated more than two-fold vs 0 hour in both groups of cells,[3]; 8 hours,6 genes
same,number of genes upregulated or downregulated more than two-fold vs 0 hour in both groups of cells,[3]; 16 hours,19 genes
same,number of genes upregulated or downregulated more than two-fold vs 0 hour in both groups of cells,[3]; 24 hours,47 genes
